Assay results from patent US8574831B2, “Mutational profiles in HIV-1 reverse transcriptase correlated with phenotypic drug resistance” (Virco N.V., priority 2000, dated 2013).

Tested on: HIV with mutations in the HIV protease sequence
Assay: Phenotypic fold resistance to protease inhibitors, protease mutations 84A/84L/84C/54M/54L/54V in a background (Examples 8-13)
Type: cell-based, HIV-1
Method in brief: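 Recombinant-virus phenotyping: patient-derived PR/RT sequences amplified by PCR and recombined in CD4+ T cells into an HXB2 proviral clone deleted for those sequences. Chimeric viruses grown across drug concentrations; IC50 determined, and fold-resistance expressed as IC50 ratio versus wild-type susceptible laboratory HIV-1 tested in parallel.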

Compound: CC(C)(C)NC(=O)[C@@H]1C[C@@H]2CCCC[C@@H]2CN1C[C@@H](O)[C@H](Cc1ccccc1)NC(=O)[C@H](CC(N)=O)NC(=O)c1ccc2ccccc2n1 [Saquinavir, saquinavir]
- Fold change in IC50 (Table 12, V055199, genotype 10I + 33F + 54M + 90M): 5.6 fold
- Fold change in IC50 (Table 13, V19263, genotype 77I): 0.3 fold
- Fold change in IC50 (Table 13, V20160, genotype WT): 0.9 fold
- Fold change in IC50 (Table 13, V021667, genotype 10I): 0.9 fold
- Fold change in IC50 (Table 13, V030496, genotype 10I + 77I): 0.3 fold
- Fold change in IC50 (Table 13, V048868, genotype 10I + 54L + 71V + 77I + 90M): 16.5 fold
- Fold change in IC50 (Table 13, V048874, genotype 10I + 33F + 54L + 71V + 77I + 90M): 4.6 fold
- Fold change in IC50 (Table 13, V048875, genotype 10I + 33F + 54L + 71V + 77I + 90M): 12.0 fold
- Fold change in IC50 (Table 13, V048877, genotype 10I + 33F + 77I + 90M): 1.5 fold
- Fold change in IC50 (Table 13, V048880, genotype 10I + 33F + 77I + 90M): 2.7 fold
- Fold change in IC50 (Table 13, V052940, genotype 71V): 0.8 fold
- Fold change in IC50 (Table 13, V052942, genotype 10I + 71V): 0.8 fold
- Fold change in IC50 (Table 13, V052943, genotype 10I + 90M): 1.1 fold
- Fold change in IC50 (Table 13, V052944, genotype 10I + 90M): 0.7 fold
- Fold change in IC50 (Table 13, V052945, genotype 77I + 90M): 1.4 fold
- Fold change in IC50 (Table 13, V052946, genotype 71V + 90M): 1.4 fold
- Fold change in IC50 (Table 13, V052947, genotype 10I + 77I + 90M): 3.9 fold
- Fold change in IC50 (Table 13, V052948, genotype 10I + 71V + 90M): 4.8 fold
- Fold change in IC50 (Table 13, V052949, genotype 10I + 71V + 77I + 90M): 2.1 fold
- Fold change in IC50 (Table 13, V052950, genotype 33F): 1.2 fold
- Fold change in IC50 (Table 13, V052951, genotype 33F + 77I): 0.4 fold
- Fold change in IC50 (Table 13, V052953, genotype 10I + 33F + 77I): 1.2 fold
- Fold change in IC50 (Table 13, V052954, genotype 33F + 77I + 90M): 1.7 fold
- Fold change in IC50 (Table 13, V052955, genotype 33F + 71V + 90M): 20.4 fold
- Fold change in IC50 (Table 13, V052968, genotype 10L/I + 33F/L + 54L + 77I): 1.5 fold
- Fold change in IC50 (Table 13, V052969, genotype 10I + 33F + 54L + 90M): 1.4 fold
- Fold change in IC50 (Table 13, V052970, genotype 54L): 0.7 fold
- Fold change in IC50 (Table 13, V052971, genotype 10I + 54L): 0.7 fold
- Fold change in IC50 (Table 13, V052972, genotype 54L + 77I): 1.0 fold
- Fold change in IC50 (Table 13, V052973, genotype 10I + 54L + 77I): 0.8 fold
- Fold change in IC50 (Table 13, V052974, genotype 10I + 54L + 90M): 1.1 fold
- Fold change in IC50 (Table 13, V052975, genotype 10I + 54L + 71V + 90M): 24.2 fold
- Fold change in IC50 (Table 13, V052976, genotype 10I + 54L + 71V + 77I + 90M): 1.8 fold
- Fold change in IC50 (Table 13, V053832, genotype 10I + 33F): 0.5 fold
- Fold change in IC50 (Table 13, V053854, genotype 54L + 71V): 0.9 fold
- Fold change in IC50 (Virco ID 214846, genotype 10I + 33F + 54V + 71V + 77I + 90M, vs mean IC50 of wild type laboratory HIV strain): 27.8 fold
- Fold change in IC50 (Virco ID V021667, genotype 10I, vs mean IC50 of wild type laboratory HIV strain): 0.9 fold
- Fold change in IC50 (Virco ID V030496, genotype 10I + 77I, vs mean IC50 of wild type laboratory HIV strain): 0.3 fold
- Fold change in IC50 (Virco ID V048876, genotype 33F + 54V + 77I + 90M, vs mean IC50 of wild type laboratory HIV strain): 1.5 fold
- Fold change in IC50 (Virco ID V048877, genotype 10I + 33F + 77I + 90M, vs mean IC50 of wild type laboratory HIV strain): 1.5 fold
- Fold change in IC50 (Virco ID V048880, genotype 10I + 33F + 77I + 90M, vs mean IC50 of wild type laboratory HIV strain): 2.7 fold
- Fold change in IC50 (Virco ID V052940, genotype 71V, vs mean IC50 of wild type laboratory HIV strain): 0.8 fold
- Fold change in IC50 (Virco ID V052942, genotype 10I + 71V, vs mean IC50 of wild type laboratory HIV strain): 0.8 fold
- Fold change in IC50 (Virco ID V052943, genotype 10I + 90M, vs mean IC50 of wild type laboratory HIV strain): 1.1 fold
- Fold change in IC50 (Virco ID V052944, genotype 10I + 90M, vs mean IC50 of wild type laboratory HIV strain): 0.7 fold
- Fold change in IC50 (Virco ID V052946, genotype 71V + 90M, vs mean IC50 of wild type laboratory HIV strain): 1.4 fold
- Fold change in IC50 (Virco ID V052947, genotype 10I + 77I + 90M, vs mean IC50 of wild type laboratory HIV strain): 3.9 fold
- Fold change in IC50 (Virco ID V052948, genotype 10I + 71V + 90M, vs mean IC50 of wild type laboratory HIV strain): 4.8 fold
- Fold change in IC50 (Virco ID V052949, genotype 10I + 71V + 77I + 90M, vs mean IC50 of wild type laboratory HIV strain): 2.1 fold
- Fold change in IC50 (Virco ID V052950, genotype 33F, vs mean IC50 of wild type laboratory HIV strain): 1.2 fold
- Fold change in IC50 (Virco ID V052951, genotype 33F + 77I, vs mean IC50 of wild type laboratory HIV strain): 0.4 fold
- Fold change in IC50 (Virco ID V052953, genotype 10I + 33F + 77I, vs mean IC50 of wild type laboratory HIV strain): 1.2 fold
- Fold change in IC50 (Virco ID V052954, genotype 33F + 77I + 90M, vs mean IC50 of wild type laboratory HIV strain): 1.7 fold
- Fold change in IC50 (Virco ID V052955, genotype 33F + 71V + 90M, vs mean IC50 of wild type laboratory HIV strain): 20.4 fold
- Fold change in IC50 (Virco ID V052957, genotype 10I + 33F + 54V + 90M, vs mean IC50 of wild type laboratory HIV strain): 1.6 fold
- Fold change in IC50 (Virco ID V052958, genotype 10I + 33F + 54V + 77I + 90M, vs mean IC50 of wild type laboratory HIV strain): 1.0 fold
- Fold change in IC50 (Virco ID V052959, genotype 10I + 33F + 54V + 77I + 90M, vs mean IC50 of wild type laboratory HIV strain): 1.0 fold
- Fold change in IC50 (Virco ID V052960, genotype 10I + 33F + 54V + 71V + 90M, vs mean IC50 of wild type laboratory HIV strain): 21.8 fold
- Fold change in IC50 (Virco ID V052961, genotype 54V, vs mean IC50 of wild type laboratory HIV strain): 1.0 fold
- Fold change in IC50 (Virco ID V052962, genotype 10I + 54V, vs mean IC50 of wild type laboratory HIV strain): 0.9 fold
- Fold change in IC50 (Virco ID V052963, genotype 54V + 77I + 90M, vs mean IC50 of wild type laboratory HIV strain): 1.3 fold
- Fold change in IC50 (Virco ID V052964, genotype 54V + 71V + 90M, vs mean IC50 of wild type laboratory HIV strain): 1.4 fold
- Fold change in IC50 (Virco ID V052965, genotype 10I + 54V + 77I + 90M, vs mean IC50 of wild type laboratory HIV strain): 6.3 fold
- Fold change in IC50 (Virco ID V052966, genotype 10I + 54V + 71V + 90M, vs mean IC50 of wild type laboratory HIV strain): 28.6 fold
- Fold change in IC50 (Virco ID V052967, genotype 10I + 54V + 71V + 77I + 90M, vs mean IC50 of wild type laboratory HIV strain): 0.6 fold
- Fold change in IC50 (Virco ID V053358, genotype 33F + 54V + 77I + 90M, vs mean IC50 of wild type laboratory HIV strain): 1.3 fold
- Fold change in IC50 (Virco ID V053831, genotype 33F + 54V, vs mean IC50 of wild type laboratory HIV strain): 1.0 fold
- Fold change in IC50 (Virco ID V053832, genotype 10I + 33F, vs mean IC50 of wild type laboratory HIV strain): 0.5 fold
